Data from US7709649B2, “Multi-substituted pyridyl sulfoximines and their use as insecticides” (Dow AgroSciences LLC, priority 2006, dated 2010).

Tests used:
[1] = test system: green peach aphid (Myzus persicae); assay: Insecticidal test for green peach aphid in foliar spray assay; assay type: in vivo; parameters: key to GPA 200: % control at 200 ppm against green peach aphid in foliar spray tests / GPA 50: % control at 50 ppm against green peach aphid in foliar spray tests: A: 90-100; B: 80-89; C: 70-79; D: 60-69; E: 50-59; F: Less than 50; G: Inactive; H: Not tested; details: foliar spray on cabbage seedlings, 3 days, Corrected % Control (Abbott); for pest or weed control at 50 ppm: Myzus persicae, 72 h, read-out: GPA 50: % control at 50 ppm against green peach aphid in foliar spray tests
Protocol: where • X=No. of live aphids on solvent check plants • Y=No. of live aphids on treated plants Insecticidal Test for Green Peach Aphid (Myzus persicae) in Foliar Spray Assay Cabbage seedlings grown in 3-inch pots, with 2-3 small (3-5 cm) true leaves, were used as test substrate. The seedlings were infested with 20-50 green peach aphids (wingless adult and nymph) 2-3 days prior to chemical application. Four seedlings were used for each treatment. Compounds (2 mg) were dissolved in 2 ml of acetone:methanol (1:1) solvent, forming stock solutions of 1000 ppm. The stock solutions were diluted 5× with 0.025% Tween 20 in H2O to obtain the highest test solution at 200 ppm. A lower test concentration of 50 ppm was prepared by making a 4× dilution from the 200 ppm solution with a diluent consisting 80 parts of 0.025% Tween 20 in H2O and 20 parts of acetone: methanol (1:1). A hand-held Devilbiss sprayer was used for spraying a solution to both sides of cabbage leaves until runoff. Reference plants (solvent check) were sprayed with the diluent only. Treated plants were held in a holding room for three days at approximately 23° C. and 40% RH prior to grading. Evaluation was conducted by counting the number of live aphids per plant under a microscope. Insecticidal activity was measured by using Abbott's correction formula: Corrected % Control=100*(X−Y)/X where • X=No. of live aphids on solvent check plants • Y=No. of live aphids on treated plants The Corrected % Control values from the above assays are given in Table 1.

[2] = test system: cotton aphid (Aphis gossypii); assay: Insecticidal test for cotton aphid in foliar spray assay; assay type: in vivo; details: for pest or weed control at 50 ppm / pest or weed control at 200 ppm: Aphis gossypii, 72 h, foliar spray on squash, 3 days, Corrected % Control (Abbott), Table 1; for pest or weed control at 50 ppm: read-out: CA 50: % control at 50 ppm against cotton aphid in foliar spray tests; for pest or weed control at 200 ppm: read-out: CA 200: % control at 200 ppm against cotton aphid in foliar spray tests; for CA 0.78: % Control at ppm against cotton aphid (foliar spray): 0.78 ppm; for CA 0.78: % Control at ppm against cotton aphid (foliar spray) / CA 3.13: % Control at ppm against cotton aphid (foliar spray) / CA 12.5: % Control at ppm against cotton aphid (foliar spray) / CA 50: % Control at ppm against cotton aphid (foliar spray): rundown assay, Table 2; for CA 3.13: % Control at ppm against cotton aphid (foliar spray): 3.13 ppm; for CA 12.5: % Control at ppm against cotton aphid (foliar spray): 12.5 ppm; for pest or weed control at 50 ppm / CA 50: % Control at ppm against cotton aphid (foliar spray): 50 ppm
Protocol: Insecticidal Test for Cotton Aphid (Aphis gossypii) in Foliar Spray Assay Squash with fully expanded cotyledon leaves were trimmed to one cotyledon per plant and infested with cotton aphid (wingless adult and nymph) 1 day prior to chemical application. Each plant was examined before chemical application to ensure proper infestation (ca. 30-70 aphids per plant). Compounds (2 mg) were dissolved in 2 ml of acetone:methanol (1:1) solvent, forming stock solutions of 1000 ppm. The stock solutions were diluted 5× with 0.025% Tween 20 in H2O to obtain the highest test solution at 200 ppm. Lower test concentrations (50, 12.5, 3.13 and 0.78 ppm) were prepared by making sequential 4× dilutions from the 200 ppm solution with a diluent consisting 80 parts of 0.025% Tween 20 in H2O and 20 parts of acetone:methanol (1:1). A hand-held Devilbiss sprayer was used to apply the spray solutions until runoff to both sides of the squash cotyledon leaves. Four plants (4 replications) were used for each concentration of each compound. Reference plants (solvent check) were sprayed with the diluent only. Treated plants were held in a holding room for 3 days at approximately 23° C. and 40% RH before the number of live aphids on each plant was recorded. Insecticidal activity was measured by Corrected % Control using Abbott's correction formula: Corrected % Control=100*(X−Y)/X where • X=No. of live aphids on solvent check plants • Y=No. of live aphids on treated plants Insecticidal Test for Green Peach Aphid (Myzus persicae) in Foliar Spray Assay

| SMILES | GPA 50: % control at 50 ppm against green peach aphid in foliar spray tests [1] | pest or weed control at 50 ppm [2] [%] | pest or weed control at 200 ppm [2] [%] | GPA 200: % control at 200 ppm against green peach aphid in foliar spray tests [1] | pest or weed control at 50 ppm [1] [%] | CA 0.78: % Control at ppm against cotton aphid (foliar spray) [2] | CA 3.13: % Control at ppm against cotton aphid (foliar spray) [2] | CA 12.5: % Control at ppm against cotton aphid (foliar spray) [2] | CA 50: % Control at ppm against cotton aphid (foliar spray) [2] | melting point [°C] |
| --- | --- | --- | --- | --- | --- | --- | --- | --- | --- | --- |
| CS(=O)(Cc1cnc(Cl)c(Cl)c1)=NC#N (centres unmarked) [Compound 1, [(5,6-dichloropyridin-3-yl)methyl](methyl)-oxido λ^4-sulfanylidenecyanamide] | G | 90 to 100 | 90 to 100 | – | – | – | – | – | – | – |
| CS(=O)(Cc1cnc(Cl)c(F)c1)=NC#N (centres unmarked) [Compound 2, [(5-fluroro-6-chloropyridin-3-yl)methyl](methyl)-oxido-λ^4-sulfanylidenecyanamide] | – | 90 to 100 | 90 to 100 | B (80-89) | 50 to 59 | A (90-100) | A (90-100) | A (90-100) | A (90-100) | – |
| CC(c1cnc(Cl)c(F)c1)S(C)(=O)=NC#N (centres unmarked) [Compound 3, [1-(5-fluoro-6-chloropyridin-3-yl)ethyl](methyl)-oxido-λ^4-sulfanylidenecyanamid] | – | 90 to 100 | 90 to 100 | A (90-100) | 80 to 89 | A (90-100) | A (90-100) | A (90-100) | A (90-100) | – |
| CSc1ncc(C(C)S(C)(=O)=NC#N)cc1F (centres unmarked) [Compound 4, [1-(5-fluoro-6-methylthioyridin-3-yl)ethyl]-(methyl)-oxido-λ^4-sulfanylidenecyanamide] | G | 80 to 89 | 90 to 100 | G | – | – | – | – | – | – |
| COc1cc(CS(C)(=O)=NC#N)cnc1Cl (centres unmarked) [Compound 5, [(5-methoxy-6-chloropyridin-3-yl)methyl](methyl)-oxido-λ^4-sulfanylidenecyanamide] | G | 70 to 79 | 90 to 100 | G | – | – | – | – | – | 123 to 125 |
| COc1cc(C(C)S(C)(=O)=NC#N)cnc1Cl (centres unmarked) [Compound 6, [1-(5-methoxy-6-chloropyridin-3-yl)ethyl](methyl)-oxido-λ^4-sulfanylidenecyanamide] | G | 60 to 69 | 90 to 100 | G | – | – | – | – | – | – |
| CS(=O)(Cc1cnc(Cl)c(Br)c1)=NC#N (centres unmarked) [Compound 7, [(5-bromo-6-chloropyridin-3-yl)methyl](methyl)-oxido-λ^4-sulfanylidenecyanamide] | G | 90 to 100 | 90 to 100 | G | – | – | – | – | – | – |
| CC(c1cnc(Cl)c(Br)c1)S(C)(=O)=NC#N (centres unmarked) [Compound 8, [1-(5-bromo-6-chloropyridin-3-yl)ethyl](methyl)-oxido-λ^4-sulfanylidenecyanamide] | G | 90 to 100 | 90 to 100 | B (80-89) | – | E (50-59) | A (90-100) | A (90-100) | A (90-100) | – |
| CS(=O)(Cc1cnc(Cl)cc1Cl)=NC#N (centres unmarked) [Compound 9, [(4,6-dichloropyridin-3-yl)methyl](methyl)-oxido λ^4-sulfanylidenecyanamide] | G | 90 to 100 | 90 to 100 | – | – | – | – | – | – | – |
